The values that follow come from patent publication US20230257396A1, “MACROCYCLES AND THEIR USE” (BLOSSOMHILL THERAPEUTICS, INC., priority 2020, published 2023).

Where a chain is given by its changes, count along the chain named.

What all share (assay): KINOMEscan kinase binding assay (Eurofins/DiscoveRx), % Ctrl
Experiment [1] has as its target T1, kinases (Homo sapiens, UniProt P36888, D835H).
T1 construct: purchased Eurofins/DiscoveRx; host or cells: E. coli BL21-derived host (T7 phage display) for most kinases; HEK-293 for the rest
T1 sequence (P36888 27-993 D835H): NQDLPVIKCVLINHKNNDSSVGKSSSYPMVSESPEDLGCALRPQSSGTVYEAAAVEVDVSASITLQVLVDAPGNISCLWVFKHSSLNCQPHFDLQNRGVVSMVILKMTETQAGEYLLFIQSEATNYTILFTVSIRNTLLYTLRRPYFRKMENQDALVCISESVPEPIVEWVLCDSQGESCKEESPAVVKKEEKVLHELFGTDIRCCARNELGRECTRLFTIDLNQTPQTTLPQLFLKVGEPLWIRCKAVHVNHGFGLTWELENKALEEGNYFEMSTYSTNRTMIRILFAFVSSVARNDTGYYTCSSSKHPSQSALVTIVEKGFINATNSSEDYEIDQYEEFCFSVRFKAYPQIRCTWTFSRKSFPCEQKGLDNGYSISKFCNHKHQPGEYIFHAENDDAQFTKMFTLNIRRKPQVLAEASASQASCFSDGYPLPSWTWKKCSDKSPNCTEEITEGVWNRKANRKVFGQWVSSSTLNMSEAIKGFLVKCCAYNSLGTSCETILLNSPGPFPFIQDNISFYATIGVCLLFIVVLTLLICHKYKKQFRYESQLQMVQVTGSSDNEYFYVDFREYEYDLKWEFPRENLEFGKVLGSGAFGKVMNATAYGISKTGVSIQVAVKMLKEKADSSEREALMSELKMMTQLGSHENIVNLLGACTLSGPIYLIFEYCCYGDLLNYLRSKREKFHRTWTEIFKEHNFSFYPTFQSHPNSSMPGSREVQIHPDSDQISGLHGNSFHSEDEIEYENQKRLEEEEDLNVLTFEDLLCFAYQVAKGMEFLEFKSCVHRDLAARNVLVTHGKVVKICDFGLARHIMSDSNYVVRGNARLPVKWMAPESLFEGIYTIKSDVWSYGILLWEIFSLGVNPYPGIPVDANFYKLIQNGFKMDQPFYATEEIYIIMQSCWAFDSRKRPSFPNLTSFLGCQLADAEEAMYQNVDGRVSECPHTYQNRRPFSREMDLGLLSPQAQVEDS
The method, boiled down: (§1)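 Competition binding: DNA- or phage-tagged kinases (T7 phage in E. coli BL21, or HEK-293-expressed) with immobilized biotinylated ligand beads and test compound, 1 h at room temperature. Bead-bound kinase eluted and quantified by qPCR; % Ctrl = (compound − positive control)/(negative control − positive control) ×100 at a single compound concentration.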

The target in experiment [2] is T2, kinases (Homo sapiens, UniProt P00533, T790M).
T2 construct: purchased Eurofins/DiscoveRx; host or cells: E. coli BL21-derived host (T7 phage display) for most kinases; HEK-293 for the rest
The essentials: as §1

Experiment [3] deals with T3, kinases (Homo sapiens, UniProt P10721, D816H).
T3 construct: purchased Eurofins/DiscoveRx; host or cells: E. coli BL21-derived host (T7 phage display) for most kinases; HEK-293 for the rest
T3 sequence (P10721 26-976 D816H): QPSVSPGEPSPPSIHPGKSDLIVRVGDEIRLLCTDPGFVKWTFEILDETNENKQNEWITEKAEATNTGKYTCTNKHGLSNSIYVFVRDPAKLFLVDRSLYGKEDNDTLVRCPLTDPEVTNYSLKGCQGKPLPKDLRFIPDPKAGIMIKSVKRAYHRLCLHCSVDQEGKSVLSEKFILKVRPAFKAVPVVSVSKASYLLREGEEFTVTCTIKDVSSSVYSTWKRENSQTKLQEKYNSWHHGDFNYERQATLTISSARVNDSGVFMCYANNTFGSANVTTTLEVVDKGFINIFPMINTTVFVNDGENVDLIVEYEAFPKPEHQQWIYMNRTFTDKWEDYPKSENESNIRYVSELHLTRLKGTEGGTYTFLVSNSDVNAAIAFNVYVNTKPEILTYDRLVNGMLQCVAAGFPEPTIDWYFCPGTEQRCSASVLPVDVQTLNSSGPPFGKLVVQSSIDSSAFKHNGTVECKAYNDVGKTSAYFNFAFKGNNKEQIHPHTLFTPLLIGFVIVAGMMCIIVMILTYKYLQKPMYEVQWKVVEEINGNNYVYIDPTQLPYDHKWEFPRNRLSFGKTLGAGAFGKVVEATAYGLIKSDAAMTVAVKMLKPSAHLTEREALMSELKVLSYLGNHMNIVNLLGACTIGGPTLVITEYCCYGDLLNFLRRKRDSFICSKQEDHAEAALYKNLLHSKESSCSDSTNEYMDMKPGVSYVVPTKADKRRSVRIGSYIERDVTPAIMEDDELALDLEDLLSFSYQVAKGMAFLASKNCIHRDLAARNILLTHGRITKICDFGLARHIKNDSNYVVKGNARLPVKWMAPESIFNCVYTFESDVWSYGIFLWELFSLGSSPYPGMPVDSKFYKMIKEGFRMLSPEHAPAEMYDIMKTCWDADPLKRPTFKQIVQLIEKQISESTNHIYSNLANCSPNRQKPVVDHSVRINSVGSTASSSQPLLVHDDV
The essentials:
as §1

Experiment [4] has as its target T4, kinases (Homo sapiens, UniProt P36888, D835V).
T4 construct: purchased Eurofins/DiscoveRx; host or cells: E. coli BL21-derived host (T7 phage display) for most kinases; HEK-293 for the rest
T4 sequence (P36888 27-993 D835V): T1 sequence (P36888 27-993 D835H) with H809V
The method, boiled down:
as §1

Experiment [5] has as its target T5, kinases (Homo sapiens, UniProt P09619).
T5 construct: purchased Eurofins/DiscoveRx; host or cells: E. coli BL21-derived host (T7 phage display) for most kinases; HEK-293 for the rest
The method, boiled down:
as §1

The target of experiment [6] is T6, kinases (Homo sapiens, UniProt P00533, DEL752-759).
T6 construct: purchased Eurofins/DiscoveRx; host or cells: E. coli BL21-derived host (T7 phage display) for most kinases; HEK-293 for the rest
The method, boiled down: as §1

Where [7] appears, read: target EGFR(S752-I759del); 1 μM.

T5 sequence (P09619 33-1106): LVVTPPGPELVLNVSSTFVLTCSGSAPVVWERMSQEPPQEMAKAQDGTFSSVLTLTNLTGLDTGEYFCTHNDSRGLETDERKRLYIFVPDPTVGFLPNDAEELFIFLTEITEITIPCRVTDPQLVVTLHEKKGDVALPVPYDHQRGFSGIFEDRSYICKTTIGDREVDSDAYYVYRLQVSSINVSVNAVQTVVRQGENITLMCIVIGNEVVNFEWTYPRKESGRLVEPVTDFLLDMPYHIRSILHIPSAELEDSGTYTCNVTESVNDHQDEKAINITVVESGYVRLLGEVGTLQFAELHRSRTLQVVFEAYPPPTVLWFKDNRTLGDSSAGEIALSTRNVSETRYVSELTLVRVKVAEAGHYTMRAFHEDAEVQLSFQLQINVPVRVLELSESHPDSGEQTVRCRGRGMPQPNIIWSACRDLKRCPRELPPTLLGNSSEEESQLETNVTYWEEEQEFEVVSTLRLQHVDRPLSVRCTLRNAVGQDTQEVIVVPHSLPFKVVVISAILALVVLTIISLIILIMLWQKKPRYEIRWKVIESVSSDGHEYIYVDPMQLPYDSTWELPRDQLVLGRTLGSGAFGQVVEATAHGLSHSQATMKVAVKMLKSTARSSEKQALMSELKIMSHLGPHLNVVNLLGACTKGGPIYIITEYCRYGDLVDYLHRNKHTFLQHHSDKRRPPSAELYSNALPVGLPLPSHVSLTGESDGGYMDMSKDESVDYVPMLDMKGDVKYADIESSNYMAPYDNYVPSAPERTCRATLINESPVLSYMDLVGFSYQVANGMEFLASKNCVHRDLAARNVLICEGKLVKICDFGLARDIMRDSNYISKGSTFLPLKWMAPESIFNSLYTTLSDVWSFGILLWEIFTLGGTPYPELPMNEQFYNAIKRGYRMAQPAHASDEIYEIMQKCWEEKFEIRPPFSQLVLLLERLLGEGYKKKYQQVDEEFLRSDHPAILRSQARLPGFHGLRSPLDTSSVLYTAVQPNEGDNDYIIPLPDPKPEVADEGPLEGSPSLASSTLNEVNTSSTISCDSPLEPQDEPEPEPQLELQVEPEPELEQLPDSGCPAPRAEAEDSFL

With `Cc1cc2c([nH]1)/C=C1\C(=O)Nc3ccc(cc31)-c1c(C)nn(C)c1COCCN(C)C2=O` [Ex. 146, [3a(4)Z]-6,9,14,16-tetramethyl-10,11,13,14-tetrahydro-2H-1,17-(ethanediylidene)pyrazolo[4,3-m]dipyrrolo[3,2-f:3′,4′-i][1,4]oxazacyclopentadecine-3,8(5H,9H)-dione], the “% Ctrl, FLT3(D835H)” value at kinases [1] (target FLT3(D835H); 1 μM) is given as 5.7 % Ctrl. For the same molecule, the “% Ctrl, EGFR(T790M)” value at kinases [2] (target EGFR(T790M); 1 μM) was 57 % Ctrl. For the same molecule, the “% Ctrl, KIT(D816H)” value on kinases [3] (target KIT(D816H); 1 μM) is listed as 100 % Ctrl. Besides, at kinases [4] (target FLT3(D835V); 1 μM), the “% Ctrl, FLT3(D835V)” value is 0.2 % Ctrl. Further, the “% Ctrl, PDGFRB” value on kinases [5] (target PDGFRB; 1 μM) is 96 % Ctrl. Moreover, the “% Ctrl, EGFR(S752-I759del)” value on kinases [6] (setting [7]) was determined as 83 % Ctrl.
For the molecule `Cc1cc2c([nH]1)/C=C1\C(=O)Nc3ccc(cc31)OCCOCCNC2=O` [Ex. 129, [16a(17)Z]-2-methyl-6,7,9,10-tetrahydro-1H-12,14-(ethanediylidene)dipyrrolo[3,2-i:3′,4′-l][1,4,7]dioxazacyclopentadecine-4,16(5H,15H)-dione], the “% Ctrl, FLT3(D835H)” value at kinases [1] (1 μM; FLT3(D835H)) is 44 % Ctrl. Further, the “% Ctrl, EGFR(T790M)” value on kinases [2] (1 μM; EGFR(T790M)) is on record as 100 % Ctrl. Moreover, the “% Ctrl, KIT(D816H)” value at kinases [3] (1 μM; KIT(D816H)) is reported as 96 % Ctrl. In addition, the “% Ctrl, FLT3(D835V)” value on kinases [4] (1 μM; FLT3(D835V)) came out at 17 % Ctrl. In addition, the “% Ctrl, PDGFRB” value at kinases [5] (1 μM; PDGFRB) worked out at 100 % Ctrl. The “% Ctrl, EGFR(S752-I759del)” value at kinases [6] (1 μM; EGFR(S752-I759del)) was determined as 78 % Ctrl.
As to `Cc1cc2c([nH]1)/C=C1\C(=O)Nc3ccc(cc31)CN(C)C(=O)COCCNC2=O` [Ex.111, [17a(18)Z]-2,11-dimethyl-6,7,11,12-tetrahydro-1H-13,15-(ethanediylidene)dipyrrolo[3,2-f:3′,4′-i][1,4,14]oxadiazacyclohexadecine-4,10,17(5H,9H,16H)-trione], on kinases [1] (1 μM; FLT3(D835H)), the “% Ctrl, FLT3(D835H)” value is reported as 20 % Ctrl. At kinases [2] (1 μM; EGFR(T790M)), the “% Ctrl, EGFR(T790M)” value is on record as 68 % Ctrl. In addition, the “% Ctrl, KIT(D816H)” value at kinases [3] (1 μM; KIT(D816H)) turned out to be 7 % Ctrl. The “% Ctrl, FLT3(D835V)” value at kinases [4] (1 μM; FLT3(D835V)) amounted to 1.5 % Ctrl. Besides, at kinases [5] (1 μM; PDGFRB), the “% Ctrl, PDGFRB” value was 88 % Ctrl. Moreover, the “% Ctrl, EGFR(S752-I759del)” value at kinases [6] (1 μM; EGFR(S752-I759del)) stood at 54 % Ctrl.
In the case of `Cc1cc2c([nH]1)/C=C1\C(=O)Nc3cc(Cl)c(cc31)OCCO[C@@H](C(=O)N[C@@H]1CCNC1)CN(C)C2=O` [Ex. 136, [7R,16a(17)Z]-19-chloro-2,5-dimethyl-4,16-dioxo-N-[(3R)-pyrrolidin-3-yl]-4,5,6,7,9,10,15,16-octahydro-1H-12,14-(ethanediylidene)dipyrrolo[3,2-i:3′,4′-l][1,4,7]dioxazacyclopentadecine-7-carboxamide], the “% Ctrl, FLT3(D835H)” value at kinases [1] (1 μM; FLT3(D835H)) was 32 % Ctrl. In addition, the “% Ctrl, EGFR(T790M)” value on kinases [2] (1 μM; EGFR(T790M)) is listed as 96 % Ctrl. Besides, on kinases [3] (1 μM; KIT(D816H)), the “% Ctrl, KIT(D816H)” value came out at 48 % Ctrl. In addition, the “% Ctrl, FLT3(D835V)” value at kinases [4] (1 μM; FLT3(D835V)) was 2 % Ctrl. Besides, the “% Ctrl, PDGFRB” value at kinases [5] (1 μM; PDGFRB) was determined as 38 % Ctrl. Also, at kinases [6] (1 μM; EGFR(S752-I759del)), the “% Ctrl, EGFR(S752-I759del)” value stood at 95 % Ctrl.
For the molecule `Cc1cc2c([nH]1)/C=C1\C(=O)Nc3ccc(cc31)-c1c(noc1C)COCCN(C)C2=O` [Ex. 128, [3a(4)Z]-6,9,16-trimethyl-1,11-dihydro-2H,13H-1,17-(ethanediylidene)[1,4]oxazolo[4,3-m]dipyrrolo[3,2-f:3′,4′-i][1,4]oxazacyclopentadecine-3,8(5H,9H)-dione], the “% Ctrl, FLT3(D835H)” value on kinases [1] (1 μM; FLT3(D835H)) is 23 % Ctrl. The “% Ctrl, EGFR(T790M)” value at kinases [2] (1 μM; EGFR(T790M)) turned out to be 75 % Ctrl. Besides, the “% Ctrl, KIT(D816H)” value on kinases [3] (1 μM; KIT(D816H)) was 87 % Ctrl. In addition, the “% Ctrl, FLT3(D835V)” value at kinases [4] (1 μM; FLT3(D835V)) is 1.7 % Ctrl. Also, the “% Ctrl, PDGFRB” value on kinases [5] (1 μM; PDGFRB) is reported as 85 % Ctrl. The “% Ctrl, EGFR(S752-I759del)” value at kinases [6] (1 μM; EGFR(S752-I759del)) is given as 98 % Ctrl.
Take `Cc1cc2c([nH]1)/C=C1\C(=O)Nc3cnc(cc31)-c1cn[nH]c1CNCCN(C)C2=O` [Ex. 55, [3a(4)Z]-6,9-dimethyl-9,10,11,12,13,14-hexahydro-17,1-(azenometheno)pyrazolo[4,3-m]dipyrrolo[3,2-f:3′,4′-i][1,4]diazacyclopentadecine-3,8(2,5H)-dione]: on kinases [1] (target FLT3(D835H); 1 μM), the “% Ctrl, FLT3(D835H)” value stood at 2.7 % Ctrl. In addition, the “% Ctrl, EGFR(T790M)” value at kinases [2] (target EGFR(T790M); 1 μM) came to 70 % Ctrl. In addition, the “% Ctrl, KIT(D816H)” value at kinases [3] (target KIT(D816H); 1 μM) is given as 18 % Ctrl. On kinases [4] (target FLT3(D835V); 1 μM), the “% Ctrl, FLT3(D835V)” value worked out at 1.1 % Ctrl. Moreover, the “% Ctrl, PDGFRB” value on kinases [5] (target PDGFRB; 1 μM) is listed as 10 % Ctrl. For the same molecule, the “% Ctrl, EGFR(S752-I759del)” value on kinases [6] (setting [7]) was found to be 84 % Ctrl.
Consider `CN1CCOc2cc3c(cc2Cl)NC(=O)/C3=C\c2[nH]ccc2C(=O)N(C)CC1` [Ex. 164, [16a(17)Z]-19-chloro-2,5,8-trimethyl-5,6,7,8,9,10-hexahydro-12,14-(ethanediylidene)dipyrrolo[3,2-i:3′,4′-l][1,4,7]oxadiazacyclopentadecine-4,16(1H,15H)-dione], for which the “% Ctrl, FLT3(D835H)” value at kinases [1] (1 μM; target FLT3(D835H)) was 0.3 % Ctrl. At kinases [2] (1 μM; target EGFR(T790M)), the “% Ctrl, EGFR(T790M)” value worked out at 97 % Ctrl. Moreover, the “% Ctrl, KIT(D816H)” value on kinases [3] (1 μM; target KIT(D816H)) is 22 % Ctrl. Also, the “% Ctrl, FLT3(D835V)” value on kinases [4] (1 μM; target FLT3(D835V)) was determined as 1.1 % Ctrl. On kinases [5] (1 μM; target PDGFRB), the “% Ctrl, PDGFRB” value came out at 0.9 % Ctrl. For the same molecule, the “% Ctrl, EGFR(S752-I759del)” value at kinases [6] (1 μM; target EGFR(S752-I759del)) worked out at 55 % Ctrl.
Regarding `Cc1cc2c([nH]1)/C=C1\C(=O)Nc3ccc(nc31)-c1ccccc1OCCCNC2=O` [Ex.22, [3a(4)Z]-6-methyl-9,10,11,12-tetrahydro-1,18-(ethanediylidene)dipyrrolo[3,2-g:3′,4′-j][1,5,12]benzoxadiazacyclopentadecine-3,8(2H,5H)-dione], at kinases [1] (1 μM; FLT3(D835H)), the “% Ctrl, FLT3(D835H)” value came to 89 % Ctrl. For the same molecule, at kinases [2] (1 μM; EGFR(T790M)), the “% Ctrl, EGFR(T790M)” value worked out at 57 % Ctrl. For the same molecule, on kinases [3] (1 μM; KIT(D816H)), the “% Ctrl, KIT(D816H)” value is 100 % Ctrl. In addition, on kinases [4] (1 μM; FLT3(D835V)), the “% Ctrl, FLT3(D835V)” value was found to be 35 % Ctrl. Moreover, the “% Ctrl, PDGFRB” value at kinases [5] (1 μM; PDGFRB) was 100 % Ctrl. Further, the “% Ctrl, EGFR(S752-I759del)” value at kinases [6] (1 μM; EGFR(S752-I759del)) is reported as 72 % Ctrl.
Take `Cc1cc2c([nH]1)/C=C1\C(=O)Nc3ccc(cc31)-c1cnn(C)c1CNCCN(C)C2=O` [Ex. 125, [3a(4)Z]-6,9,14-trimethyl-9,10,11,12,13,14-hexahydro-1,17-(ethanediylidene)pyrazolo[4,3-m]dipyrrolo[3,2-f:3′,4′-i][1,4]diazacyclopentadecine-3,8(2H,5H)-dione]: the “% Ctrl, FLT3(D835H)” value at kinases [1] (1 μM; FLT3(D835H)) is on record as 0.05 % Ctrl. Besides, on kinases [2] (1 μM; EGFR(T790M)), the “% Ctrl, EGFR(T790M)” value worked out at 11 % Ctrl. Also, the “% Ctrl, KIT(D816H)” value at kinases [3] (1 μM; KIT(D816H)) came out at 0.65 % Ctrl. At kinases [4] (1 μM; FLT3(D835V)), the “% Ctrl, FLT3(D835V)” value came out at 0.25 % Ctrl. Also, the “% Ctrl, PDGFRB” value on kinases [5] (1 μM; PDGFRB) was found to be 0.4 % Ctrl. On kinases [6] (1 μM; EGFR(S752-I759del)), the “% Ctrl, EGFR(S752-I759del)” value amounted to 73 % Ctrl.
